What was measured:
hGPR55 = target: T1, hGPR55 (Homo sapiens, UniProt Q9Y2T6); experiment: cell-based; conditions: β-arrestin recruitment; read-out: GPR55 pEC50 (± SEM) (converted)
T1 construct: host or cells: CHO-K1 (PathHunter hGPR55_bgal)

hCB2R = hCB2R (Homo sapiens, UniProt P34972); parameters: expressed in transfected cells; host or cells: Flp-In-293 (Invitrogen #R750-07), pcDNA5/FRT; conditions: hCB2R; for ΔLogR GIRK / ΔLogR GTPγS / ΔLogR cAMP / ΔLogR pERK / ΔLogR β-AR: reference CP55940; for RE GIRK / RE GTPγS / RE cAMP / RE pERK / RE β-AR: relative effectiveness
hCB2R, sequence (P34972 whole entry): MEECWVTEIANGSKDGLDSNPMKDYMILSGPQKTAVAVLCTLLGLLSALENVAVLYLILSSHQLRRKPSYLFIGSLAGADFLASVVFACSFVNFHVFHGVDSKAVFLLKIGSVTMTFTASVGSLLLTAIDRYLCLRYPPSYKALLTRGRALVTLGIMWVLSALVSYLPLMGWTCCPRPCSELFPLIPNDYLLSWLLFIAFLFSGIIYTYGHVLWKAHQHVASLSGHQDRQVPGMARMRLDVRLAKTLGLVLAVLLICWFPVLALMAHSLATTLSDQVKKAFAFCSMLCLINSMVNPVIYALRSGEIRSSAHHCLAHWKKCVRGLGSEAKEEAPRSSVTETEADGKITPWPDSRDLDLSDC

mCB1R = target: T2, mCB1R (Mus musculus, UniProt P47746); experiment: biochemical; format: binding; conditions: mouse brain membranes; read-out: pKi ± SEM mCB1R (converted)
T2 construct: from tissue; host or cells: brain of male C57BL/6J mice
T2 sequence (P47746 whole entry): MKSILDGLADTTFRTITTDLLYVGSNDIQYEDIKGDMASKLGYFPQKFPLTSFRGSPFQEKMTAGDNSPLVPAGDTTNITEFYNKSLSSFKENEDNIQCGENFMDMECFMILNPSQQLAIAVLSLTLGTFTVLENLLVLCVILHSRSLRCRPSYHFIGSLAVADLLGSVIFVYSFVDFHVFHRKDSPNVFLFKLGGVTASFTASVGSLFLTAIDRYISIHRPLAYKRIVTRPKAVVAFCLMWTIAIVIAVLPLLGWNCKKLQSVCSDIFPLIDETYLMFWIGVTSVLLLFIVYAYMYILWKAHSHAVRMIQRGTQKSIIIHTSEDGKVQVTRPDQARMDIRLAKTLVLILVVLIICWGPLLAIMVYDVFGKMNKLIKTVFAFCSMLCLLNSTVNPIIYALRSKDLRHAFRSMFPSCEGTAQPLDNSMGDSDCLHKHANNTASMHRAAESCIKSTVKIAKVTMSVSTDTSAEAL

hCB1R [1] = target: T3, hCB1R (Homo sapiens, UniProt P21554); experiment: biochemical; format: biochemical; conditions: read-out: Emax ± SEM GTPγS hCB1R
T3 construct: host or cells: CHO
T3 sequence (P21554 whole entry): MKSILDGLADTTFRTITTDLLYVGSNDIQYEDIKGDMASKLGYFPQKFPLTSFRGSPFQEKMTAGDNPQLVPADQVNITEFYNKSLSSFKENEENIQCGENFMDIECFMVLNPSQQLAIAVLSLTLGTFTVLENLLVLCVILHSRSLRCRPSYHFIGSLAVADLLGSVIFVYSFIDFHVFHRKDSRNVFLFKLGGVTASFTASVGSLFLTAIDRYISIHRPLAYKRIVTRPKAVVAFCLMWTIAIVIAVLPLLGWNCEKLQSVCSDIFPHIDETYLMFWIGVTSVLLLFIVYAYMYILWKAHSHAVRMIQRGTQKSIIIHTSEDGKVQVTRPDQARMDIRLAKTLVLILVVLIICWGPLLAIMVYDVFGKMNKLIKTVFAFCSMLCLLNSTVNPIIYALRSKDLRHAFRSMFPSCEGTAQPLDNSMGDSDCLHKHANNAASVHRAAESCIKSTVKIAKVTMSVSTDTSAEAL

hCB1R [2] = target: T3, hCB1R; experiment: cell-based; format: cell-based; conditions: read-out: Emax ± SEM pERK hCB1R

T1 sequence (Q9Y2T6 whole entry): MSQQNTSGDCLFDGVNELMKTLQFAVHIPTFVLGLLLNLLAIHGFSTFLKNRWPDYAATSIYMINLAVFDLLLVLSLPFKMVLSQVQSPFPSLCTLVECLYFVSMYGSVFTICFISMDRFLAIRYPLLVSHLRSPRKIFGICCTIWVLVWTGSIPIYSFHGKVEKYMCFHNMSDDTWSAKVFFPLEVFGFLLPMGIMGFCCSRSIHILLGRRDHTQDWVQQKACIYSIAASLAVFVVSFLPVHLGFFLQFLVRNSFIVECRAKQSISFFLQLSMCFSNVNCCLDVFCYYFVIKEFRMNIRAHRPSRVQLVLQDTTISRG

| Compound | GIRK-GTPγS bias factor (BF) (hCB2R) | GIRK-GTPγS ΔΔlogR (hCB2R) | GIRK-cAMP bias factor (BF) (hCB2R) | GIRK-cAMP ΔΔlogR (hCB2R) | GTPγS-cAMP bias factor (BF) (hCB2R) | GTPγS-cAMP ΔΔlogR (hCB2R) | LogR GIRK (hCB2R) | LogR GTPγS (hCB2R) | LogR cAMP (hCB2R) | LogR pERK (hCB2R) | LogR β-AR (hCB2R) | pERK-GIRK bias factor (BF) (hCB2R) | pERK-GIRK ΔΔlogR (hCB2R) | pERK-GTPγS bias factor (BF) (hCB2R) | pERK-GTPγS ΔΔlogR (hCB2R) | pERK-cAMP bias factor (BF) (hCB2R) | pERK-cAMP ΔΔlogR (hCB2R) | β-AR-GIRK bias factor (BF) (hCB2R) | β-AR-GIRK ΔΔlogR (hCB2R) | β-AR-GTPγS bias factor (BF) (hCB2R) | also measured |
| --- | --- | --- | --- | --- | --- | --- | --- | --- | --- | --- | --- | --- | --- | --- | --- | --- | --- | --- | --- | --- | --- |
| CCCCC/C=C\C/C=C\C/C=C\C/C=C\CCCC(=O)NCCO [Anandamide, N-arachidonoylethanolamine] | 2.57 | 0.41 ± 0.65 | 26.36 | 1.42 ± 0.34 | 10.26 | 1.01 ± 0.41 | 4.53 | 4.54 | 5.96 | 6.03 | 5.54 | 2.14 | 0.33 ± 0.43 | 5.50 | 0.74 ± 0.66 | 56.36 | 1.75 ± 0.37 | 2.37 | 0.38 ± 0.37 | 6.10 | EC50 (hGPR55): > 10000 nM; β-AR-GTPγS ΔΔlogR (hCB2R): 0.79 ± 0.62; β-AR-cAMP bias factor (BF) (hCB2R): 62.52; β-AR-cAMP ΔΔlogR (hCB2R): 1.80 ± 0.29; β-AR-pERK bias factor (BF) (hCB2R): 1.11; β-AR-pERK ΔΔlogR (hCB2R): 0.04 ± 0.39; ΔLogR GIRK (hCB2R): -3.33; ΔLogR GTPγS (hCB2R): -3.74; ΔLogR cAMP (hCB2R): -4.76; ΔLogR pERK (hCB2R): -3 ± 0.32; ΔLogR β-AR (hCB2R): -2.96; RE GIRK (hCB2R): 0.005; RE GTPγS (hCB2R): 0.0002; RE cAMP (hCB2R): 0.00002; RE pERK (hCB2R): 0.001; RE β-AR (hCB2R): 0.001 |
| CCCCC/C=C\C/C=C\C/C=C\C/C=C\CCCC(=O)OC(CO)CO [2-AG, 2-arachidonoyl glycerol] | 154.53 | 2.19 ± 0.44 | 178.65 | 2.25 ± 0.21 | 1.16 | 0.06 ± 0.46 | 6.40 | 4.63 | 6.99 | 6.37 | 5.9 | 0.06 | -1.2 ± 0.29 | 9.68 | 0.99 ± 0.5 | 11.19 | 1.05 ± 0.31 | 0.07 | -1.14 ± 0.19 | 11.27 | Ki (mCB1R): 102 nM; Emax (hCB1R [1]): 71 ± 20%; Emax (hCB1R [2]): 111 ± 10%; β-AR-GTPγS ΔΔlogR (hCB2R): 1.05 ± 0.45; β-AR-cAMP bias factor (BF) (hCB2R): 13.03; β-AR-cAMP ΔΔlogR (hCB2R): 1.12 ± 0.23; β-AR-pERK bias factor (BF) (hCB2R): 1.16; β-AR-pERK ΔΔlogR (hCB2R): 0.07 ± 0.3; ΔLogR GIRK (hCB2R): -1.47; ΔLogR GTPγS (hCB2R): -3.65; ΔLogR cAMP (hCB2R): -3.72; ΔLogR pERK (hCB2R): -2.67; ΔLogR β-AR (hCB2R): -2.6; RE GIRK (hCB2R): 0.03; RE GTPγS (hCB2R): 0.0002; RE cAMP (hCB2R): 0.0002; RE pERK (hCB2R): 0.002; RE β-AR (hCB2R): 0.003 |
